Assay results reported in patent US20200390767A1, “Formulations of 4-(7-Hydroxy-2-isopropyl-4-oxo-4H-quinazolin-3-yl)-benzonitrile” (NOVARTIS AG, priority 2019, published 2020).

System: corneal sensitivity
Experiment: First in human study, esthesiometry assessment (Part 3)
Format: in vivo
Settings: single eye drop; for anesthetic effect on the cornea: healthy subjects
Excerpt: Part 3 was an esthesiometry assessment to evaluate the anesthetic properties of compound I. Part 3 of the study had four arms, with compound I, vehicle, tetracaine (0.5% ophthalmic solution, used as a positive control) and diclofenac sodium (0.1% ophthalmic solution, used as the active NSAID comparator). Ocular anesthetic was selected because of its established anesthetic effect; however it is not the standard of care due to its negative effect on wound healing. NSAID is the current standard of care for corneal pain after PRK with minimal anesthetic but significant pain control properties. Vehicle eye drops were used as a negative control to enable better determination of the potential anesthetic effect. Twelve healthy subjects, who met the eligibility criteria, were randomized to receive a single eye drop of 4 study treatments, each during 1 of 4 different study days (Days 1, 4, 7 and 10). Each subject was randomized to receive the study treatment according to one of the following four sequences: • Sequence 1: Anesthetic, NSAID, compound I 2.5%, Vehicle • Sequence 2: NSAID, Vehicle, Anesthetic, compound I 2.5% • Sequence 3: Vehicle, compound I 2.5%, NSAID, Anesthetic • Sequence 4: compound I 2.5%, Anesthetic, Vehicle, NSAID
The first-in-human study further evaluated potential anesthetic effect of topical ocular 2.5% compound I by esthesiometry testing, i.e. measurement of the filament length (cm) when the threshold of cornea touch is perceived.

SMILES | anesthetic effect on the cornea | duration of action of anesthetic effect
O=C(O)Cc1ccccc1Nc1c(Cl)cccc1Cl [diclofenac 0.1%, diclofenac sodium] | no anesthetic effect | –
CCCCNc1ccc(C(=O)OCCN(C)C)cc1 [tetracaine 0.5%, tetracaine] | had an anesthetic effect | approximately 10 minutes
